# Where two headings read alike, the source gives them in different places.
# Legend:
# [1] = target: T1, VIM-2 (Escherichia coli, UniProt Q5U7L7); assay: β-Lactamase inhibition, VIM-2 (nitrocefin substrate); format: biochemical
# T1 construct: made in house; host or cells: E. coli BL21 (DE3)
# Procedure: For SHV-5, Kpc-2, p99AmpC and OXA-1 β-lactamases, E. coli BL21 (DE3) bacterial cells carrying expression plasmids (expressed as native untagged proteins) for the individual β-lactamases were grown in 1 L of Superbroth (Teknova Inc. Hollister, Calif.) supplemented with 100 μg/ml kanamycin selection and 1×5052 (0.5% glycerol, 0.05% glucose and 0.2% α-lactose) at 35° C. for 18-20 hours. Cells were harvested by centrifugation (4,000×g, 4° C., 20 min), resuspended in 50 ml of 10 mM HEPES pH 7.5 ( 1/20 of the initial volume). The cells were lysed by sonication (5 pulses of 45 seconds) at 45 W on ice. The lysates were clarified by centrifugation at 10,000×g for 40 minutes at 4° C. Samples were diluted 5-fold in 50 mM sodium acetate pH 5.0, stored overnight at 4° C., after which they were centrifuged at 10,000×g for 30 minutes to clarify, and filtered through 0.45 µm filters. The samples were loaded onto a 5 ml Capto S sepharose cation exchange column (GE Healthcare) pre-equilibrated with 50 mM sodium acetate pH 5.0. […] Active fractions were pooled concentrated, quantitated by BCA protein determination (Thermo Scientific, Rockford, Ill.), dialyzed into PBS and frozen at −80° C. in 20% glycerol until use. […]
# (§1) An equal volume of diluted enzyme stock was added, and the plates were incubated at 37° C. for 15 min. […] Absorbance at 486 nm was immediately monitored for 10 min using a Biotek Powerwave XS2 microplate spectrophotometer using the GEN5 software package (Biotek Instruments, Winooski Vt.). In an analogous fashion, imipenem was used as substrate for Kpc-2 and Cefotaxime was used for SHV-5, while changes in absorbance upon hydrolysis of the β-lactam ring were monitored at 300 nm and 260 nm respectively in UV-transparent 96-well microtiter assay plates. Maximum rates of hydrolysis were compared to those in control wells (without inhibitors), and percentages of enzyme inhibition were calculated for each concentration of inhibitor. […]
# [2] = target: T2, SHV-5 (Klebsiella pneumoniae, UniProt P0A3M1); assay: β-Lactamase inhibition, SHV-5 (cefotaxime substrate); format: biochemical
# T2 construct: made in house; host or cells: E. coli BL21 (DE3)
# Procedure: (§2) For SHV-5, Kpc-2, p99AmpC and OXA-1 β-lactamases, E. coli BL21 (DE3) bacterial cells carrying expression plasmids (expressed as native untagged proteins) for the individual β-lactamases were grown in 1 L of Superbroth (Teknova Inc. Hollister, Calif.) supplemented with 100 μg/ml kanamycin selection and 1×5052 (0.5% glycerol, 0.05% glucose and 0.2% α-lactose) at 35° C. for 18-20 hours. Cells were harvested by centrifugation (4,000×g, 4° C., 20 min), resuspended in 50 ml of 10 mM HEPES pH 7.5 ( 1/20 of the initial volume). The cells were lysed by sonication (5 pulses of 45 seconds) at 45 W on ice. The lysates were clarified by centrifugation at 10,000×g for 40 minutes at 4° C. Samples were diluted 5-fold in 50 mM sodium acetate pH 5.0, stored overnight at 4° C., after which they were centrifuged at 10,000×g for 30 minutes to clarify, and filtered through 0.45 µm filters. The samples were loaded onto a 5 ml Capto S sepharose cation exchange column (GE Healthcare) pre-equilibrated with 50 mM sodium acetate pH 5.0. […] Active fractions were pooled concentrated, quantitated by BCA protein determination (Thermo Scientific, Rockford, Ill.), dialyzed into PBS and frozen at −80° C. in 20% glycerol until use.
# as §1
# [3] = system: E. cl 144200 p99 AmpC; assay: Broth microdilution MIC, E. cloacae 144200; format: cell-based; conditions: fixed ceftazidime 4 μg/mL, CAMHB, 16-20 hours 37° C.; for MIC: Enterobacter cloacae, read-out: MIC of exemplary compounds in presence of fixed β-lactams, Fixed CAZ, E. cl 144200 p99 AmpC
# Procedure, shortened: (§3)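 CAMHB; compound 32–0.25 μg/mL, 2-fold dilutions; β-lactam partner static at 4 μg/ml; CLSI inoculum from 3-5 h culture; 16-20 h, 37° C; visual MIC.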
# [4] = system: E. coli ESBL4 CTX-M-15; assay: Broth microdilution MIC, E. coli ESBL4; format: cell-based; conditions: fixed ceftazidime 4 μg/mL, CAMHB, 16-20 hours 37° C.; for MIC: Escherichia coli, ESBL4CTXM15, read-out: MIC of exemplary compounds in presence of fixed β-lactams, Fixed CAZ, E. coli ESBL4 CTX-M-15
# Procedure, shortened: as §3
# [5] = target: T3, p99 AmpC (Enterobacter cloacae, UniProt P05364); assay: β-Lactamase inhibition, p99 AmpC (nitrocefin substrate); format: biochemical
# T3 construct: made in house; host or cells: E. coli BL21 (DE3)
# Procedure: For SHV-5, Kpc-2, p99AmpC and OXA-1 β-lactamases, E. coli BL21 (DE3) bacterial cells carrying expression plasmids (expressed as native untagged proteins) for the individual β-lactamases were grown in 1 L of Superbroth (Teknova Inc. Hollister, Calif.) supplemented with 100 μg/ml kanamycin selection and 1×5052 (0.5% glycerol, 0.05% glucose and 0.2% α-lactose) at 35° C. for 18-20 hours. Cells were harvested by centrifugation (4,000×g, 4° C., 20 min), resuspended in 50 ml of 10 mM HEPES pH 7.5 ( 1/20 of the initial volume). The cells were lysed by sonication (5 pulses of 45 seconds) at 45 W on ice. The lysates were clarified by centrifugation at 10,000×g for 40 minutes at 4° C. Samples were diluted 5-fold in 50 mM sodium acetate pH 5.0, stored overnight at 4° C., after which they were centrifuged at 10,000×g for 30 minutes to clarify, and filtered through 0.45 µm filters. The samples were loaded onto a 5 ml Capto S sepharose cation exchange column (GE Healthcare) pre-equilibrated with 50 mM sodium acetate pH 5.0. The column was washed with 5 column volumes of 50 mM sodium acetate pH 5.0 to wash out unbound protein and a linear gradient of NaCl (0 to 500 mM) was used to elute the protein (over 16 CV) from the column. Fractions were assayed for β-lactamase activity using Centa (Calbiochem, Gibbstown, N.J.) or Nitrocefin (EMD Millipore chemicals, Darmstadt, Germany) as a reporter β-lactamase substrate for activity in the isolated fractions. Active fractions were pooled, concentrated and further purified by gel filtration chromatography on a Superdex 75 prep grade gel filtration column (GE Healthcare, Piscataway, N.J.) pre-equilibrated in 50 mM Hepes pH 7.5, 150 mM NaCl. Active fractions were pooled concentrated, quantitated by BCA protein determination (Thermo Scientific, Rockford, Ill.), dialyzed into PBS and frozen at −80° C. in 20% glycerol until use.
# An equal volume of diluted enzyme stock was added, and the plates were incubated at 37° C. for 15 min. Nitrocefin was used as substrate for p99 AmpC, VIM-2 and OXA-1 and dispensed into each well at a final concentration of 100 μM. Absorbance at 486 nm was immediately monitored for 10 min using a Biotek Powerwave XS2 microplate spectrophotometer using the GEN5 software package (Biotek Instruments, Winooski Vt.). In an analogous fashion, imipenem was used as substrate for Kpc-2 and Cefotaxime was used for SHV-5, while changes in absorbance upon hydrolysis of the β-lactam ring were monitored at 300 nm and 260 nm respectively in UV-transparent 96-well microtiter assay plates. Maximum rates of hydrolysis were compared to those in control wells (without inhibitors), and percentages of enzyme inhibition were calculated for each concentration of inhibitor. The concentration of inhibitor needed to reduce the initial rate of hydrolysis of substrate by 50% (IC50) was calculated as the residual activity of β-lactamase at 486 nm using GraFit version 7 kinetics software package (Erithacus Software, Surrey, UK).
# Using the methodology described above, examples of the current invention were evaluated for their ability to inhibit β-lactamase enzymes from all four Ambler classifications (A through D). […] NT=Not tested.
# [6] = target: T4, OXA-1 (Escherichia coli, UniProt P13661); assay: β-Lactamase inhibition, OXA-1 (nitrocefin substrate); format: biochemical
# T4 construct: made in house; host or cells: E. coli BL21 (DE3)
# Procedure: as §2, §1
# [7] = target: T5, KPC-2 (Klebsiella pneumoniae, UniProt Q9F663); assay: β-Lactamase inhibition, KPC-2 (imipenem substrate); format: biochemical
# T5 construct: made in house; host or cells: E. coli BL21 (DE3)
# Procedure: as §2, §1
# [8] = system: K.P. A-1797 KPC-2 VIM-4; assay: Broth microdilution MIC, K. pneumoniae A-1797; format: cell-based; conditions: fixed meropenem 4 μg/mL, CAMHB, 16-20 hours 37° C.; for MIC: Klebsiella pneumoniae, read-out: MIC of exemplary compounds in presence of fixed β-lactams, Fixed Mero, K.P. A-1797 KPC-2 VIM-4
# [9] = system: P. aerug. Ps296 VIM-2; assay: Broth microdilution MIC, P. aeruginosa Ps296; format: cell-based; conditions: fixed meropenem 4 μg/mL, CAMHB, 16-20 hours 37° C.; for MIC: Pseudomonas aeruginosa, read-out: MIC of exemplary compounds in presence of fixed β-lactams, Fixed Mero, P. aerug. Ps296 VIM-2
# Procedure, shortened: as §3
# [10] = system: K.P. 156319 KPC-3; assay: Broth microdilution MIC, K. pneumoniae 156319; format: cell-based; conditions: fixed meropenem 4 μg/mL, CAMHB, 16-20 hours 37° C.; for MIC: Klebsiella pneumoniae, read-out: MIC of exemplary compounds in presence of fixed β-lactams, Fixed Mero, K.P. 156319 KPC-3
# [11] = system: S. aureus MSSA-7 PC-1; assay: Broth microdilution MIC, S. aureus MSSA-7; format: cell-based; conditions: Staphylococcus aureus, fixed piperacillin 4 μg/mL, CAMHB, 16-20 hours 37° C., read-out: MIC of exemplary compounds in presence of fixed β-lactams, Fixed Pip, S. aureus MSSA-7 PC-1
# [12] = nitrocefin 100 μM, 486 nm, 15 min preincubation 37° C., PBS pH 7.4, read-out: IC50 AmpC (Class C)
# T3 sequence (P05364 21-381): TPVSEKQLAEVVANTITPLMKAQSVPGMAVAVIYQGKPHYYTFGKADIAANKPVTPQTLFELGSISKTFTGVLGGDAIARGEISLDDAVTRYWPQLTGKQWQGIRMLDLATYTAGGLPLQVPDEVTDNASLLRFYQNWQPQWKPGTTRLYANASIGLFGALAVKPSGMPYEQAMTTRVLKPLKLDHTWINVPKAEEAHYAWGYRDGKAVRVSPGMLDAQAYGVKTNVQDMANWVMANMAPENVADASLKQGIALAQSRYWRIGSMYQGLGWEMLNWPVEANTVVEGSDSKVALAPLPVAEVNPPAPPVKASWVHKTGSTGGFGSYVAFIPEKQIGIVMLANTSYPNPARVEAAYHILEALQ
# T4 sequence (P13661 26-276): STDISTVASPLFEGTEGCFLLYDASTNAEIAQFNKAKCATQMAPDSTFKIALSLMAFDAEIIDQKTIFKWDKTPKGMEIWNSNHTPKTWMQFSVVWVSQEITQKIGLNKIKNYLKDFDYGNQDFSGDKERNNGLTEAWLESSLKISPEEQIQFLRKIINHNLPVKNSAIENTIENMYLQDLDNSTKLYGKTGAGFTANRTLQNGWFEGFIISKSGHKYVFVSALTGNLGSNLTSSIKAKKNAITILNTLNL
# T2 sequence (P0A3M1 22-286): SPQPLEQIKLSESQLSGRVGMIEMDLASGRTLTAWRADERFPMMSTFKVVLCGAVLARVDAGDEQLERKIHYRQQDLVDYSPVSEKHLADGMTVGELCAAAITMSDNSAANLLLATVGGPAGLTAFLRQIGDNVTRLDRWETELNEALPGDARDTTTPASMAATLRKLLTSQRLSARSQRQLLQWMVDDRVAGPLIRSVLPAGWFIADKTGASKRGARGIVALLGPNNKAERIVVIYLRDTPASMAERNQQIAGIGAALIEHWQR
# T5 sequence (Q9F663 25-293 limits assumed): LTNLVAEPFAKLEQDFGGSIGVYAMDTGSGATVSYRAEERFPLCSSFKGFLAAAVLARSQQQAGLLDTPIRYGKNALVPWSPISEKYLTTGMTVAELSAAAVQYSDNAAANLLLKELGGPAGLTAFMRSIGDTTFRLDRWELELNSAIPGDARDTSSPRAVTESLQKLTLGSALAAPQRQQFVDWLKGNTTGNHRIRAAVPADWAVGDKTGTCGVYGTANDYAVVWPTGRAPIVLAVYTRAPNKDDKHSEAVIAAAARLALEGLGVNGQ
SMILES,IC50 [1] [µM],IC50 [2] [µM],"MIC of exemplary compounds in presence of fixed β-lactams, Fixed CAZ, E. cl 144200 p99 AmpC [3]","MIC of exemplary compounds in presence of fixed β-lactams, Fixed CAZ, E. coli ESBL4 CTX-M-15 [4]",IC50 [5] [µM],IC50 [6] [µM],IC50 [7] [µM],"MIC of exemplary compounds in presence of fixed β-lactams, Fixed Mero, K.P. A-1797 KPC-2 VIM-4 [8]","MIC of exemplary compounds in presence of fixed β-lactams, Fixed Mero, P. aerug. Ps296 VIM-2 [9]","MIC of exemplary compounds in presence of fixed β-lactams, Fixed Mero, K.P. 156319 KPC-3 [10]",MIC [11] [mg/L],MIC [3] [mg/L],MIC [4] [mg/L],"IC50 [5, 12] [µM]",MIC [8] [mg/L],MIC [9] [mg/L],MIC [10] [mg/L]
"N[C@@H]1CC[C@@H](C(=O)N[C@H]2Cc3cccc(C(=O)O)c3OB2O)C[C@H]1N (mixture of isomers) [Example 20, (3R)-3-[[(1S,3S,4S)-3,4-diaminocyclohexanecarbonyl]amino]-2-hydroxy-3,4-dihydro-1,2-benzoxaborinine-8-carboxylic acid and (3R)-3-[[(1R,3R,4R)-3,4-diaminocyclohexanecarbonyl]amino]-2-hydroxy-3,4-dihydro-1,2-benzoxaborinine-8-carboxylic acid]",< 0.1,1 to 10,C (C represents the MIC in the presence of <4 μg/mL of a β-lactamase inhibitor of exemplary compounds),C (C represents the MIC in the presence of <4 μg/mL of a β-lactamase inhibitor of exemplary compounds),< 0.1,0.1 to 1,0.1 to 1,B (B represents the MIC in the presence of between 8 and 32 μg/mL of a β-lactamase inhibitor of exemplary compounds),C (C represents the MIC in the presence of <4 μg/mL of a β-lactamase inhibitor of exemplary compounds),C (C represents the MIC in the presence of <4 μg/mL of a β-lactamase inhibitor of exemplary compounds),,,,,,,
"NC1CN(C2CCC(CC(=O)N[C@H]3Cc4cccc(C(=O)O)c4OB3O)CC2)C1 (stereo partly drawn) [Example 35, (3R)-3-(2-(4-(3-aminoazetidin-1-yl)cyclohexyl)acetamido)-2-hydroxy-3,4-dihydro-2H-benzo[e][1,2]oxaborinine-8-carboxylic acid]",,,,,,,,,,,< 4,< 4,< 4,< 0.1,8 to 32,< 4,< 4
"O=C(CC1CCC(NC2CNC2)CC1)N[C@H]1Cc2cccc(C(=O)O)c2OB1O (stereo partly drawn) [Example 36, (3R)-3-(2-(4-(azetidin-3-ylamino)cyclohexyl)acetamido)-2-hydroxy-3,4-dihydro-2H-benzo[e][1,2]oxaborinine-8-carboxylic acid]",,,,,,,,,,,< 4,< 4,< 4,< 0.1,8 to 32,< 4,< 4
"CNCCN[C@H]1CC[C@H](CC(=O)N[C@H]2Cc3cccc(C(=O)O)c3OB2O)CC1 [Example 51, (R)-2-hydroxy-3-(2-(trans-4-(2-(methylamino)ethylamino)cyclohexyl)acetamido)-3,4-dihydro-2H-benzol[e][1,2]oxaborinine-8-carboxylic acid]",,,,,,,,,,,< 4,< 4,< 4,,< 4,< 4,< 4
